According to patent US20230000081A1, “SYNERGISTIC PESTICIDAL COMPOSITIONS FOR DELIVERY OF PESTICIDAL ACTIVE INGREDIENTS AND METHODS THEREFOR” (0903608 B.C. Ltd., priority 2018, published 2023):
Where “and” joins values, the source holds several entries; their conditions need not be identical. Equal entries are not always repeated. Values belong to the compound of their own block, whether it stands above or below them.

Assays:
Experiment in all cases: Synergistic Growth Inhibition Assay (MIC, FIC index; 96-well microtiter plate, resazurin dye)
Format in all cases: cell-based
Alternaria solani = conditions: 7 days incubation; for MIC (A): Compound A alone
Method: In some embodiments, the synergistic action between the pesticidal active ingredient, and the at least one C4-C10 (or alternatively C11 or C12) saturated or unsaturated aliphatic acid components of the pesticidal compositions according to embodiments of the present disclosure was tested using a Synergistic Growth Inhibition Assay, which is derived from and related to a checkerboard assay as is known in the art for testing of combinations of antimicrobial agents. In the Synergistic Growth Inhibition Assay used in accordance with some embodiments of the present disclosure, multiple dilutions of combinations of pesticidal active ingredient and at least one C4-C10 saturated or unsaturated aliphatic acid agents are tested in individual cells for inhibitory activity against a target pest or pathogenic organism. In one such embodiment, the combinations of pesticidal active ingredient and C4-C10 (or alternatively C11 or C12) saturated or unsaturated aliphatic acid agents may preferably be tested in decreasing concentrations. In a further such embodiment, the combinations of pesticidal active ingredient and C4-C10 (or alternatively C11 or C12) saturated or unsaturated aliphatic acid agents may be tested in increasing concentrations. These multiple combinations of the pesticidal active ingredient and at least one C4-C10 (or alternatively C11 or C12) saturated or unsaturated aliphatic acid agents may be prepared in 96-well microtiter plates. […] Thus, each well of the microtiter plate is a unique combination of the two agents, at which inhibitory efficacy of the combination against the target pest or pathogen can be determined.
In one embodiment according to the present disclosure, for each row of microtiter cells in the Synergistic Growth Inhibition Assay, the FIC index is calculated from the lowest concentration of the pesticidal active ingredient and one or more C4-C10 saturated or unsaturated aliphatic acid agents necessary to inhibit growth of a target pest or pathogen. […] The FIC index is calculated for each row as follows: […]

Fusarium oxysporum = conditions: for MIC (A): Compound A alone
Method: (§1) In some embodiments, the synergistic action between the pesticidal active ingredient, and the at least one C4-C10 (or alternatively C11 or C12) saturated or unsaturated aliphatic acid components of the pesticidal compositions according to embodiments of the present disclosure was tested using a Synergistic Growth Inhibition Assay, which is derived from and related to a checkerboard assay as is known in the art for testing of combinations of antimicrobial agents. In the Synergistic Growth Inhibition Assay used in accordance with some embodiments of the present disclosure, multiple dilutions of combinations of pesticidal active ingredient and at least one C4-C10 saturated or unsaturated aliphatic acid agents are tested in individual cells for inhibitory activity against a target pest or pathogenic organism. In one such embodiment, the combinations of pesticidal active ingredient and C4-C10 (or alternatively C11 or C12) saturated or unsaturated aliphatic acid agents may preferably be tested in decreasing concentrations. In a further such embodiment, the combinations of pesticidal active ingredient and C4-C10 (or alternatively C11 or C12) saturated or unsaturated aliphatic acid agents may be tested in increasing concentrations. These multiple combinations of the pesticidal active ingredient and at least one C4-C10 (or alternatively C11 or C12) saturated or unsaturated aliphatic acid agents may be prepared in 96-well microtiter plates. In one such embodiment, the Synergistic Growth Inhibition Assay then comprises rows which each contain progressively decreasing concentrations of the pesticidal active ingredient and one or more C4-C10 (or alternatively C11 or C12) saturated or unsaturated aliphatic acid agents to test for the MIC of the agents in combination at which growth of the target pest or pathogen is inhibited. Thus, each well of the microtiter plate is a unique combination of the two agents, at which inhibitory efficacy of the combination against the target pest or pathogen can be determined.
(§2) In one embodiment according to the present disclosure, for each row of microtiter cells in the Synergistic Growth Inhibition Assay, the FIC index is calculated from the lowest concentration of the pesticidal active ingredient and one or more C4-C10 saturated or unsaturated aliphatic acid agents necessary to inhibit growth of a target pest or pathogen. The FIC of each component is derived by dividing the concentration of the agent present in that well of the microtiter plate by the minimal inhibitory concentration (MIC) needed of that agent alone to inhibit growth of the target pest or pathogen. The FIC index is then the sum of these values for both agents in that well of the microtiter plate. The FIC index is calculated for each row as follows:
(§3) FICindex=MICa/MICA+MICb/MICB
(§4) Fractional inhibitory concentration indices may then used as measure of synergy. […] When the FIC index is equal to 1, the combination is additive.
Then, serial dilutions of these initial compositions in successive wells in the row of the microtiter plate were used to assay the pesticidal composition under the same conditions to determine the concentration of the composition combining the two agents corresponding to the microtiter well in which growth inhibition of the target pest or organism ceases. […]

Botrytis cinerea = conditions: for MIC (A): Compound A alone
Method: as §1, §2, §3, §4
(§5) Then, serial dilutions of these initial compositions in successive wells in the row of the microtiter plate were used to assay the pesticidal composition under the same conditions to determine the concentration of the composition combining the two agents corresponding to the microtiter well in which growth inhibition of the target pest or organism ceases.
Similarly to as described above, Resazurin was used as an indicator of growth or inhibition of growth of Botrytis cinerea in the exemplary Synergistic Growth Inhibition Assay. In addition to the color change of the resazurin, an optical or visual examination of the microtiter well may also be made to additionally determine the presence of growth or inhibition of growth of the Botrytis cinerea.

Sclerotinia sclerotiorum = conditions: for MIC (A): Compound A alone
Method: as §1, §2, §3, §4, §5
Similarly to as described above, Resazurin was used as an indicator of growth or inhibition of growth of Sclerotinia sclerotiorum in the exemplary Synergistic Growth Inhibition Assay. […]

[1] = Compound B alone, 48 hours incubation
[2] = Compound B (aliphatic acid) alone, Botrytis cinerea, 48 hours incubation
[3] = Fusarium oxysporum, incubation period of 48 hours
[4] = Sclerotinia sclerotiorum, 7 days incubation
[5] = Botrytis cinerea, 48 hours incubation

- MIC (B) (Alternaria solani; Compound B (aliphatic acid) alone): 2500 mg/L
Compound: CCC(O)C(=O)O (stereo not drawn) [2-Hydroxybutyric acid]

- MIC (B) (Fusarium oxysporum; [1]): 10000 mg/L
- MIC (B) (Botrytis cinerea; [2]): 10000 mg/L
Compound: CC(O)CC(=O)O (stereo not drawn) [3-Hydroxybutyric acid, 3-hydroxybutyric acid]

- MIC (B) (Botrytis cinerea; [2]): 125 mg/L
Compound: CCCCCCCC(O)CC(=O)O (stereo not drawn) [3-Hydroxydecanoic acid, 3-hydroxydecanoic acid]

- MIC (B) (Botrytis cinerea; [2]): 2500 mg/L
Compound: CCCC(O)CC(=O)O (stereo not drawn) [3-Hydroxyhexanoic acid, 3-hydroxyhexanoic acid]

Compound: O=C(O)CCCCCCCO [8-Hydroxyoctanoic acid]
- MIC (B) (Botrytis cinerea; [2]): 2500 mg/L

Compound: O=C(O)CCCCCCCCCCCO [12-Hydroxydodecanoic acid]
- MIC (B) (Botrytis cinerea; [2]): 100 mg/L and 50 mg/L

Compound: CCCCCCCC/C=C\CCCCCCCC(=O)O [(9Z)-octadecenoic acid]
- MIC (B) (Botrytis cinerea; Compound B alone, Botrytis cinerea, incubation period of 48 hours): 5000 mg/L
- MIC (B) (Sclerotinia sclerotiorum; Compound B alone, Sclerotinia sclerotiorum, 7 days incubation): 5000 mg/L

Compound: CO/C=C(/C(=O)OC)c1ccccc1Oc1cc(Oc2ccccc2C#N)ncn1 [Azoxystrobin, azoxystrobin, reference compound]
- MIC (A) (Fusarium oxysporum; Fusarium oxysporum, 48 hours incubation): 150 mg/L
- MIC (A) (Fusarium oxysporum; [3]): 150 mg/L
- MIC (A) (Botrytis cinerea; Botrytis cinerea, incubation period of 2 days): 150 mg/L
- MIC (A) (Botrytis cinerea; Botrytis cinerea, incubation period of 48 hours): 75 mg/L and 150 mg/L
- MIC (A) (Sclerotinia sclerotiorum; 7 days incubation): 75 mg/L
- MIC (A) (Sclerotinia sclerotiorum; [4]): 150 mg/L
- MIC (A) (Sclerotinia sclerotiorum; Sclerotinia sclerotiorum, incubation period of 7 days): 150 mg/L

Compound: N#Cc1c[nH]cc1-c1cccc2c1OC(F)(F)O2 [Fludioxonil, fludioxonil]
- MIC (A) (Fusarium oxysporum; 24 hour incubation): 0.24063 mg/L

Compound: CCCCCC(=O)O [Hexanoic acid]
- MIC (B) (Botrytis cinerea; [1]): 156.2 mg/L

Compound: Cc1cc(C(F)(F)F)nn1CC(=O)N1CCC(c2nc(C3=NOC(c4c(F)cccc4F)C3)cs2)CC1 (stereo not drawn) [Oxathiapiprolin]
- MIC (A) (Botrytis cinerea; [5]): 500 mg/L

Compound: CO/C=C(/C(=O)OC)c1ccccc1COc1cccc(C(F)(F)F)n1 [Picoxystrobin]
- MIC (A) (Alternaria solani): 500 mg/L
- MIC (A) (Botrytis cinerea; [5]): 250 mg/L
- MIC (A) (Sclerotinia sclerotiorum; [4]): 500 mg/L

Compound: CC(C)(C)C(O)(CCc1ccc(Cl)cc1)Cn1cncn1 (stereo not drawn) [Tebuconazole]
- MIC (A) (Fusarium oxysporum; [3]): 225 mg/L

Compound: Mancozeb
- MIC (A) (Alternaria solani): 500 mg/L
